The values below are quoted from earlier work in US11576952B2, “Injectable solution at pH 7 comprising at least one basal insulin for which the pI is from 5.8 to 8.5 and a co-polyamino acid bearing carboxylate charges and hydrophobic radicals” (ADOCIA, priority 2017, dated 2023).

The conditions of this data set: background description.

Regarding insulin glargine, the “Period over which the blood sugar lowering effect is quasi-constant” value is 24 h.
